Assay results taken from the kinase profiling compilation of Christmann-Franck et al. (2016).

Columns and labels:
Assay in all cases: KINOMEscan competition binding
DAPK2 (human) = DAPK2 (human) (UniProt Q9UIK4); conditions: compound 10.0 µM
ACVR2A (human) = ACVR2A (human) (UniProt P27037); conditions: compound 10.0 µM
TAOK1 (human) = TAOK1 (human) (UniProt Q7L7X3); conditions: compound 10.0 µM
CSNK1E (human) = CSNK1E (human) (UniProt P49674); conditions: compound 10.0 µM
[1] = tested on: KIT (human), P10721 [D816V]; conditions: compound 10.0 µM
AURKB (human) = AURKB (human) (UniProt Q96GD4); conditions: for kinase still bound, per cent of control: compound 10.0 µM
PHKG2 (human) = PHKG2 (human) (UniProt P15735); conditions: compound 10.0 µM
CSNK2A2 (human) = CSNK2A2 (human) (UniProt P19784); conditions: compound 10.0 µM
SRPK3 (human) = SRPK3 (human) (UniProt Q9UPE1); conditions: compound 10.0 µM
SRPK3 (human), sequence (Q9UPE1 whole entry, looked up): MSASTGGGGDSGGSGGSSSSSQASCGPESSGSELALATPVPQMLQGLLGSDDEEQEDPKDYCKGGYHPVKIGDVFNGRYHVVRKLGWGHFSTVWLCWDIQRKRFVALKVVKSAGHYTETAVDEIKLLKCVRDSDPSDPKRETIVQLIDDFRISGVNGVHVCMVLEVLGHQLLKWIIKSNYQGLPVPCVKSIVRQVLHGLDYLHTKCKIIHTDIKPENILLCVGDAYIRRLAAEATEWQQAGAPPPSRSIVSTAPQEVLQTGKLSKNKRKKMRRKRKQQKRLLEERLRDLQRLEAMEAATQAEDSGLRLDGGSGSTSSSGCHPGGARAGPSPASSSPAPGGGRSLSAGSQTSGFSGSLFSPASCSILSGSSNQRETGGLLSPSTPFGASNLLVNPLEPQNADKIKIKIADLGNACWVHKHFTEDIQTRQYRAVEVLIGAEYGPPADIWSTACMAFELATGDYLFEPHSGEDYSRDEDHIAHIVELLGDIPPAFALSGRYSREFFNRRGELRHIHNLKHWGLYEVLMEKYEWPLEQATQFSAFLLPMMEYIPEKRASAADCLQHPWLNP

TTK (human) = TTK (human) (UniProt P33981); conditions: compound 10.0 µM
RPS6KA2 KD2 (human) = RPS6KA2 KD2 (human) (UniProt Q15349); conditions: compound 10.0 µM
RPS6KA2 KD2 (human), sequence (Q15349 whole entry, looked up): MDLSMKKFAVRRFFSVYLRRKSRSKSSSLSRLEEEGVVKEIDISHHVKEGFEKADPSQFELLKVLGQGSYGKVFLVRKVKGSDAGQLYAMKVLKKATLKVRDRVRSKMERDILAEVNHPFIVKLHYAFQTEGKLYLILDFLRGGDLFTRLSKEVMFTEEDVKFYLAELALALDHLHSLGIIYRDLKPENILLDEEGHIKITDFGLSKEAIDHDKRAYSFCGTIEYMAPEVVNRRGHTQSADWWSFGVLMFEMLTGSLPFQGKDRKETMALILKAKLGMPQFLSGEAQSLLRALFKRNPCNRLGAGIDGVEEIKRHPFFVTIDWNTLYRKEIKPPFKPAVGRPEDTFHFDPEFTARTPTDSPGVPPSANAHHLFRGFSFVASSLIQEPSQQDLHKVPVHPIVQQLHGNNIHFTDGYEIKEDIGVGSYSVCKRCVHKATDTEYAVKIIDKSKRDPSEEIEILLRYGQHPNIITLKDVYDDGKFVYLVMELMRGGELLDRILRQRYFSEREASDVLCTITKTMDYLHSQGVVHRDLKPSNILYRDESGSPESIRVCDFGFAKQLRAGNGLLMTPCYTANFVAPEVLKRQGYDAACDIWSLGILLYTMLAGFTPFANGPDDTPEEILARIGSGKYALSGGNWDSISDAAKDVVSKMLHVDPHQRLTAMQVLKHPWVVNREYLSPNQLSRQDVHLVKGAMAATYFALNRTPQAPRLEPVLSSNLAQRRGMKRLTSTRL

[2] = tested on: KIT (human), P10721 [V559D/V654A]; conditions: compound 10.0 µM
PIM3 (human) = PIM3 (human) (UniProt Q86V86); conditions: compound 10.0 µM
TNIK (human) = TNIK (human) (UniProt Q9UKE5); conditions: compound 10.0 µM
BMP2K (human) = BMP2K (human) (UniProt Q9NSY1); conditions: compound 10.0 µM
BMP2K (human), sequence (Q9NSY1 whole entry, looked up): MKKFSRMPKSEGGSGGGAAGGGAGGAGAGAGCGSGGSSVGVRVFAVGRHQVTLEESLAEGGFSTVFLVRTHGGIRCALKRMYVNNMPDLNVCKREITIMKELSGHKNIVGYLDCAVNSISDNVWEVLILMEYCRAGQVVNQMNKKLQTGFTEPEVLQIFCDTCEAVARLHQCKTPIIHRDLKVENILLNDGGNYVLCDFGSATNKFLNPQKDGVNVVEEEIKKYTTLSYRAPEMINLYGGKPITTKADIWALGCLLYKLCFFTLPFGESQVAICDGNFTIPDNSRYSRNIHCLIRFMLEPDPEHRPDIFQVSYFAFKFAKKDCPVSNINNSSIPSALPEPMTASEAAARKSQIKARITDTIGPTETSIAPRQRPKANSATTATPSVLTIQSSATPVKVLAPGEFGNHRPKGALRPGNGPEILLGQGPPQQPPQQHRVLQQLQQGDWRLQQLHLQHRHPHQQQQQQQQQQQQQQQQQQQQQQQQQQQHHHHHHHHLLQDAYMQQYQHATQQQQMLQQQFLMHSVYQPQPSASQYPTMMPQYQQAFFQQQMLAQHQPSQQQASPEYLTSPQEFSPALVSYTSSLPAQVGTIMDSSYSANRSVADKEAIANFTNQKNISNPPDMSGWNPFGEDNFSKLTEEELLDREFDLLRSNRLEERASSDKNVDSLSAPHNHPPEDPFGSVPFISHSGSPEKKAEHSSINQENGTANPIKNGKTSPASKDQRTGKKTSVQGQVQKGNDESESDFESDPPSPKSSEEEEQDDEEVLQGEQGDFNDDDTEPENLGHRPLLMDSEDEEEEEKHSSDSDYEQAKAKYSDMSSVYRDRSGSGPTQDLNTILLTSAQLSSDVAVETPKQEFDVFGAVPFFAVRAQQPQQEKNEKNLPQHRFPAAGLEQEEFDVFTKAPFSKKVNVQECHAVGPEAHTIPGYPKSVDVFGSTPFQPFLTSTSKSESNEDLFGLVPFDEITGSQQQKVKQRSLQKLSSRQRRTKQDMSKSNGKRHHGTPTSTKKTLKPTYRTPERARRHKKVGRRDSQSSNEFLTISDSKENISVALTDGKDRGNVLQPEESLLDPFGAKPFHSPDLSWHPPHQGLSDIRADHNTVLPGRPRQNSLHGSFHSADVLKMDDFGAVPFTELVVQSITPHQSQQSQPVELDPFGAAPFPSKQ

PIP4K2B (human) = PIP4K2B (human) (UniProt P78356); conditions: compound 10.0 µM
STK17B (human) = STK17B (human) (UniProt O94768); conditions: compound 10.0 µM
GAK (human) = GAK (human) (UniProt O14976); conditions: compound 10.0 µM
[3] = tested on: EGFR (human), P00533 [G719S]; conditions: compound 10.0 µM
SRPK2 (human) = SRPK2 (human) (UniProt P78362); conditions: compound 10.0 µM
PIM2 (human) = PIM2 (human) (UniProt Q9P1W9); conditions: compound 10.0 µM
PIM2 (human), sequence (Q9P1W9 whole entry, looked up): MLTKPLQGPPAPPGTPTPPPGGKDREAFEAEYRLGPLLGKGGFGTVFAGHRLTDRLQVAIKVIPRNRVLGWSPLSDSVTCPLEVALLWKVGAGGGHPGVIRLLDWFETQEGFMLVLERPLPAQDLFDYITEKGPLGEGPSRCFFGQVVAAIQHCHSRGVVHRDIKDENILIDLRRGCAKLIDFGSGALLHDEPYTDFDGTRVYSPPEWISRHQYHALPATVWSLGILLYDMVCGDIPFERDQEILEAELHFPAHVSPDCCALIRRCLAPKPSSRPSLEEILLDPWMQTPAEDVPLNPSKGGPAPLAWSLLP

CDK7 (human) = CDK7 (human) (UniProt P50613); conditions: compound 10.0 µM
CDK7 (human), sequence (P50613 whole entry, looked up): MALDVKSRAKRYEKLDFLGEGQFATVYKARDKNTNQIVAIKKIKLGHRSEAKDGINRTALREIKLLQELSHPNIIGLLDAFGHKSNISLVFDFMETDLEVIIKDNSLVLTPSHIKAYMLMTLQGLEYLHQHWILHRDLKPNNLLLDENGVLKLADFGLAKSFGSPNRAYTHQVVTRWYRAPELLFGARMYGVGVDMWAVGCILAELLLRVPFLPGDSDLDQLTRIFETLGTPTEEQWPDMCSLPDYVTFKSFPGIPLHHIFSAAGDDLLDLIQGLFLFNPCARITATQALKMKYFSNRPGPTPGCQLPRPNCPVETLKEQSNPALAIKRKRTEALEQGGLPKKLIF

[4] = tested on: FLT3 (human), P36888 [N841I]; conditions: compound 10.0 µM
DYRK1B (human) = DYRK1B (human) (UniProt Q9Y463); conditions: compound 10.0 µM
DYRK1B (human), sequence (Q9Y463 whole entry, looked up): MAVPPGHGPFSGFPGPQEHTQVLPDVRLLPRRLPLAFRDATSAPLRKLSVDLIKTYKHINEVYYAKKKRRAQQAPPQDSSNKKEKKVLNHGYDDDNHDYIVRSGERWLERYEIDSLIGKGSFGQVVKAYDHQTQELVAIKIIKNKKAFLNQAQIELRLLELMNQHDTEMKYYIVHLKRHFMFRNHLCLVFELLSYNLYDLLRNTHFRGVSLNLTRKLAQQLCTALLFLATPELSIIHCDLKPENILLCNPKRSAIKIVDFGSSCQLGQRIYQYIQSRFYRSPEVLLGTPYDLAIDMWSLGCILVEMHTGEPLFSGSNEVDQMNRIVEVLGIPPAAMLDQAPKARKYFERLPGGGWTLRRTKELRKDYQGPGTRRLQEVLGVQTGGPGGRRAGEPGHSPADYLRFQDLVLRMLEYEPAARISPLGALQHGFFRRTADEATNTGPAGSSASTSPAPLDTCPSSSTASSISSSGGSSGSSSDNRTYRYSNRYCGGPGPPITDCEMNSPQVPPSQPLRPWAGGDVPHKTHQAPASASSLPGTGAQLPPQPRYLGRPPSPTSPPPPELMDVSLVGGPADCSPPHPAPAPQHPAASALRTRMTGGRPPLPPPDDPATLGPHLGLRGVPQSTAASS

[5] = tested on: KIT (human), P10721 [V559D]; conditions: compound 10.0 µM
TLK1 (human) = TLK1 (human) (UniProt Q9UKI8); conditions: compound 10.0 µM
MAPK15 (human) = MAPK15 (human) (UniProt Q8TD08); conditions: compound 10.0 µM
DAPK3 (human) = DAPK3 (human) (UniProt O43293); conditions: compound 10.0 µM
CSNK2A1 (human) = CSNK2A1 (human) (UniProt P68400); conditions: compound 10.0 µM
CSNK2A1 (human), sequence (P68400 whole entry, looked up): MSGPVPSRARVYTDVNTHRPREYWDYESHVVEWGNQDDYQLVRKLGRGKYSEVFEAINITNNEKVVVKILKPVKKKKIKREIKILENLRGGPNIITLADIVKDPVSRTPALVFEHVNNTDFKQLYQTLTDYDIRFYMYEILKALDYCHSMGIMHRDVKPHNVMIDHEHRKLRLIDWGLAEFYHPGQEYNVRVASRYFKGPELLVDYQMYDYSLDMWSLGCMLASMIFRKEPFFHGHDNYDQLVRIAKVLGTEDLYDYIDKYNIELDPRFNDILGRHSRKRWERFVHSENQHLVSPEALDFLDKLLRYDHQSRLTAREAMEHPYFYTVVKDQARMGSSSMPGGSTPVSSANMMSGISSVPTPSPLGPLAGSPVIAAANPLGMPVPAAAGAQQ

KIT (human) = KIT (human) (UniProt P10721); conditions: compound 10.0 µM
RIOK1 (human) = RIOK1 (human) (UniProt Q9BRS2); conditions: compound 10.0 µM
RIOK1 (human), sequence (Q9BRS2 whole entry, looked up): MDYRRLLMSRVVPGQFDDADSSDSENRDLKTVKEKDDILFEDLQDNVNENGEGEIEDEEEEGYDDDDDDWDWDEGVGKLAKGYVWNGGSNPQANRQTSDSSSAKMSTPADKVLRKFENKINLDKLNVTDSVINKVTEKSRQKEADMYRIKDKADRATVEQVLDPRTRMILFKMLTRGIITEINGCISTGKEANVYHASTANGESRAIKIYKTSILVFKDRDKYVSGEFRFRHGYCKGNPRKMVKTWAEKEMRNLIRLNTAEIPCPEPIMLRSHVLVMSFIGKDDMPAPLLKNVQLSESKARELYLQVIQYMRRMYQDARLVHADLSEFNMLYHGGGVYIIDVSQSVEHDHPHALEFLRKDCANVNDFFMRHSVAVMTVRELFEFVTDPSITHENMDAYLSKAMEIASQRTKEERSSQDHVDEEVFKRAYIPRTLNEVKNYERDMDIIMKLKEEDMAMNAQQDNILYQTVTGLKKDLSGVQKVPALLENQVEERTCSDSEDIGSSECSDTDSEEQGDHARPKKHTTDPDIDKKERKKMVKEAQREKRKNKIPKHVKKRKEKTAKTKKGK

MYLK (human) = MYLK (human) (UniProt Q15746); conditions: compound 10.0 µM
STK24 (human) = STK24 (human) (UniProt Q9Y6E0); conditions: compound 10.0 µM
MAP4K4 (human) = MAP4K4 (human) (UniProt O95819); conditions: compound 10.0 µM
RIOK2 (human) = RIOK2 (human) (UniProt Q9BVS4); conditions: compound 10.0 µM
MINK1 (human) = MINK1 (human) (UniProt Q8N4C8); conditions: compound 10.0 µM
CSNK1G1 (human) = CSNK1G1 (human) (UniProt Q9HCP0); conditions: compound 10.0 µM
MAP2K4 (human) = MAP2K4 (human) (UniProt P45985); conditions: compound 10.0 µM
PIK3CG (human) = PIK3CG (human) (UniProt P48736); conditions: compound 10.0 µM
RPS6KA5 KD2 (human) = RPS6KA5 KD2 (human) (UniProt O75582); conditions: compound 10.0 µM
BMPR1B (human) = BMPR1B (human) (UniProt O00238); conditions: compound 10.0 µM
[6] = tested on: EGFR (human), P00533 [747-751 del / S ins]; conditions: compound 10.0 µM

SMILES	kinase still bound, per cent of control (DAPK2 (human))	kinase still bound, per cent of control (TAOK1 (human))	kinase still bound, per cent of control (CSNK1E (human))	kinase still bound, per cent of control (CSNK2A2 (human))	kinase still bound, per cent of control (SRPK3 (human))	kinase still bound, per cent of control (RPS6KA2 KD2 (human))	kinase still bound, per cent of control (PIM3 (human))	kinase still bound, per cent of control (BMP2K (human))	kinase still bound, per cent of control (PIP4K2B (human))	kinase still bound, per cent of control (STK17B (human))	kinase still bound, per cent of control (GAK (human))	kinase still bound, per cent of control (SRPK2 (human))	kinase still bound, per cent of control (PIM2 (human))	kinase still bound, per cent of control (CDK7 (human))	kinase still bound, per cent of control (DYRK1B (human))	kinase still bound, per cent of control (MAPK15 (human))	kinase still bound, per cent of control (DAPK3 (human))	kinase still bound, per cent of control (CSNK2A1 (human))	kinase still bound, per cent of control (RIOK1 (human))	kinase still bound, per cent of control (MYLK (human))	further results
N=C1NC(=O)/C(=C/c2ccc(-c3cncc4ccccc34)o2)S1	7.4%	10%	1.4%	5.1%	7.2%	13%	1.6%	0%	2.6%	0.2%	0.9%	9.9%	0.9%	14%	11%	10%	6.2%	6.4%	1.4%	19%	kinase still bound, per cent of control (ACVR2A (human)): 8.6%; kinase still bound, per cent of control [1]: 3.8%; Kd (AURKB (human)): 210 nM; kinase still bound, per cent of control (AURKB (human)): 0.8%; kinase still bound, per cent of control (PHKG2 (human)): 10%; kinase still bound, per cent of control (TTK (human)): 2.4%; kinase still bound, per cent of control [2]: 23%; kinase still bound, per cent of control (TNIK (human)): 8%; kinase still bound, per cent of control [3]: 26%; kinase still bound, per cent of control [4]: 0.95%; kinase still bound, per cent of control [5]: 7.2%; kinase still bound, per cent of control (TLK1 (human)): 28%; kinase still bound, per cent of control (KIT (human)): 10%; kinase still bound, per cent of control (STK24 (human)): 16%
CN1C(=O)[C@H]2CCC[C@H]2N(C2CCCC2)c2nc(Nc3ccc(C(N)=O)cc3)ncc21	8.6%	8.7%	21%		27%	20%	6.4%	12%	9.6%	0.2%	15%			3.7%	2.8%	18%	33%	25%	26%	23%	kinase still bound, per cent of control (AURKB (human)): 8.6%; kinase still bound, per cent of control (MAP4K4 (human)): 3.5%; kinase still bound, per cent of control (RIOK2 (human)): 6%; kinase still bound, per cent of control (TTK (human)): 14%; kinase still bound, per cent of control [2]: 4.1%; kinase still bound, per cent of control (TNIK (human)): 13%; kinase still bound, per cent of control [4]: 5.2%; kinase still bound, per cent of control (MINK1 (human)): 1.8%; kinase still bound, per cent of control (CSNK1G1 (human)): 23%; kinase still bound, per cent of control (MAP2K4 (human)): 31%; kinase still bound, per cent of control (TLK1 (human)): 8.6%; kinase still bound, per cent of control (PIK3CG (human)): 11%; kinase still bound, per cent of control (STK24 (human)): 16%
CSC1=NC(=O)/C(=C/c2c[nH]c(=O)c(-c3ccc(NS(C)(=O)=O)cc3)c2)S1	3.6%			6.2%	14%	16%	16%	2%	18%	5%	3.4%	13%	1.7%	30%	15%	5%	6.2%	1.6%	7.1%	34%	kinase still bound, per cent of control (RPS6KA5 KD2 (human)): 11%; kinase still bound, per cent of control (BMPR1B (human)): 7.4%; kinase still bound, per cent of control (MAP2K4 (human)): 10%; kinase still bound, per cent of control (PIK3CG (human)): 13%
Nc1cccc(-c2cc(/C=C3\SC(=O)NC3=O)c[nH]c2=O)c1	0.2%	21%	26%	9.6%	13%	3.8%	5.4%	1%	6.6%	1%	9.2%	26%	1%	8.8%	0.4%	0.55%	0.6%	17%	9.8%	25%	kinase still bound, per cent of control (RPS6KA5 KD2 (human)): 11%; kinase still bound, per cent of control (AURKB (human)): 8%; kinase still bound, per cent of control (PHKG2 (human)): 11%; kinase still bound, per cent of control [3]: 21%; kinase still bound, per cent of control (CSNK1G1 (human)): 19%; kinase still bound, per cent of control (BMPR1B (human)): 2.2%; kinase still bound, per cent of control (PIK3CG (human)): 11%; kinase still bound, per cent of control [6]: 4.8%
CS(=O)(=O)Nc1ccc(-c2cc(/C=C3\SC(=N)NC3=O)c[nH]c2=O)cc1	2.2%	23%		3.4%	14%		6.1%	2.2%	13%	31%		2.3%	3.4%	26%	3.2%	0.1%	4.4%	4.8%	11%		kinase still bound, per cent of control (RPS6KA5 KD2 (human)): 0.15%; kinase still bound, per cent of control (ACVR2A (human)): 6.6%; kinase still bound, per cent of control [1]: 19%; kinase still bound, per cent of control (MAP4K4 (human)): 25%; kinase still bound, per cent of control (RIOK2 (human)): 33%; kinase still bound, per cent of control (TTK (human)): 33%; kinase still bound, per cent of control [4]: 30%; kinase still bound, per cent of control (MINK1 (human)): 15%; kinase still bound, per cent of control (BMPR1B (human)): 4.1%; kinase still bound, per cent of control [5]: 12%; kinase still bound, per cent of control (KIT (human)): 22%
